Measured values from patent US20250188030A1, “Biphenyl and Phenylpyridine Compounds” (Pfizer Inc., priority 2023, published 2025).
Where two headings read alike, the source gives them in different places.

How the values were obtained:
H3K9AC (HT1080 cells) = experiment: H3K9AC Sandwich ELISA Assay in HT1080 cells (KAT2A primary cell-based screening assay); set-up: species or system Human
Description: Human fibrosarcoma cell line HT1080 was obtained from American Type Culture Collection (ATCC), Manassas, VA USA, Cat. HT-1080 (ATCC® CCL-121™). Cells were cultured in MEM (Thermo Fisher Scientific/Gibco Life Technologies Cat. #11-095-080) plus 10% (v/v) FBS (Thermo Fisher Scientific/Gibco Life Technologies Cat. #26140-079) and 1% Penicillin-Streptomycin (Thermo Fisher Scientific/Gibco Life Technologies Cat. #15070063) at 37° C. in 5% CO2.
HT1080 cells were trypsinized, cell viability count performed, and cells suspended in complete media at 100,000 cells/ml. Cells were seeded (100 μl/well) into Greiner Bio-One CELLSTAR 96-well polystyrene flat bottom cell culture microplate (Thermo Fisher Scientific Cat. #07-000-162) at a density of 10,000 cells/well. Cells were incubated for 16 hours at 37° C. at 5% CO2. Compound dilution plates were prepared in 96-well, clear U-bottom, polypropylene plates (Corning 3365) in 100% DMSO at 10 mM stock concentration in duplicate, using 10-point serial dilution (1:3). Compounds were diluted to 1:200 in growth medium and 25 μl from intermediate compound plates were added to each well of the cell plates using a Beckman FX liquid handling system such that the highest compound concentration tested was 10 μM final, with a 0.1% final DMSO concentration in the total volume of 125 μl. Plates were incubated for 24 hours at 37° C. and 5% CO2. Plates were centrifuged at 2500 rpm for 5 minutes and medium was removed. 100 μL 0.4N HCL (Thermo Fisher Scientific Cat #SA56-1) was added to each well and plates were shaken for 60 minutes at 4C to lyse cells. 38ul 0.4N Sodium phosphase dibasic pH12.5 (Thermo Fisher Scientific Cat #S375-212) containing 2 mM Sodium Butyrate (Millipore TR1008G) and 3 mM Phenylmethanesulfonyl-fluoride (Sigma 93482) was added to each well to neutralize lysates.
Cell lysate plates were mixed for 5 minutes at room temperature on shaker and immediately frozen at −80C overnight. Cell lysates were thawed and 50 μL/well was transferred to ELISA plates (Total Histone H3 mouse (Cell Signaling Technology Cat #14269) mAb-coated Corning 1×8 strip-well, white, 96-well plates (Corning 2485)). After 2 hours room temperature incubation, plates were washed six times with PBS/0.05% Tween Wash Buffer using a BioTek plate washer. 50 μL of Histone H3K9AC rabbit detection mAb (Cell Signaling Technology Cat #9649S) diluted 1:1000 in blocking buffer (Thermo Fisher Scientific Cat #37542) was added to each well and incubated for 2 hours at room temperature. After washing, 50 μL anti-rabbit IgG, HRP-Linked antibody (Cell Signaling Technology Cat #7074) diluted 1:1000 in blocking buffer was added to each well and incubated for 60 minutes at room temperature. Following incubation, plates were washed as described above. 50 μL of luminescent GLO substrate reagent (R&D System Cat #DY993) was added to each well and incubated for 10 minutes at room temperature. Plates were read on the PHERAstar plate reader using the 96-well with Luminescent reading mode. IC50 values were calculated using a four-parameter fit with GraphPad Prism version 9.5.1 or in-house modified IDBS ActivityBase data analyzing package.

KAT2A = KAT2A (Homo sapiens (Human), UniProt Q92830); experiment: KAT2A acetyltransferase biochemical assay (RapidFire mass spectrometry, AcCoA to CoA)
KAT2A, sequence (Q92830 whole entry): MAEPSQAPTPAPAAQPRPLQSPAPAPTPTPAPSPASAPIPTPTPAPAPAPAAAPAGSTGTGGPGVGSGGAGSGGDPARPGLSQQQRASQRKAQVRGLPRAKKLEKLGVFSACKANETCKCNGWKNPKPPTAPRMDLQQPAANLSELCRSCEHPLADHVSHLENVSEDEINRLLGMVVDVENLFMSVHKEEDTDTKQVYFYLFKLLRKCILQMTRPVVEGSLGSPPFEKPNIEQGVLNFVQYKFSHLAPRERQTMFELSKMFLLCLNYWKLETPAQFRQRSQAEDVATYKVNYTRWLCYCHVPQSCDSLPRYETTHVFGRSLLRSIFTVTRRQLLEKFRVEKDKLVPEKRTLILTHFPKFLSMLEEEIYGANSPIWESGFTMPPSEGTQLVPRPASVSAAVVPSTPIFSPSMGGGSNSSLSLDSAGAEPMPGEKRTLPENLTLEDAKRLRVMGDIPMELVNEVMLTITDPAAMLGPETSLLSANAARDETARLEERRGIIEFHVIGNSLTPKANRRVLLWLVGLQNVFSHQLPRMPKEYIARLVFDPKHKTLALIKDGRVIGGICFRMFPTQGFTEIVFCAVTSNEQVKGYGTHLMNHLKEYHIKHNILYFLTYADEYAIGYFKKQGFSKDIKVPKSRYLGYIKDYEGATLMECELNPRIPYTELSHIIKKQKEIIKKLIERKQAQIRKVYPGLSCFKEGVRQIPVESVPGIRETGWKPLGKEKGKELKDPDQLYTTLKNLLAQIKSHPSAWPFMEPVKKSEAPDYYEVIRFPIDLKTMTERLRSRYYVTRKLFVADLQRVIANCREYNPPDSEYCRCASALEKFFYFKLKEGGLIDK

[1] = Homo sapiens, HT-1080, H3K9AC sandwich ELISA
[2] = read-out: KAT2A Ki at 1 μM AcCoA, 5 μM H3 1-21 peptide, 0.5 nM KAT2A, 90-minute reaction

Row | Compound | IC50 (H3K9AC (HT1080 cells); [1]) [nM] | Ki (KAT2A; [2]) [nM] | IC50 (H3K9AC (HT1080 cells); H3K9AC sandwich ELISA) [nM] | Ki (KAT2A; KAT2A Ki at 1 μM AcCoA, 5 μM H3 1-21 peptide, 0.5 nM KAT2A, 90-minute reaction) [nM]
1 | CC(C)(C(N)=O)c1ccc(O[C@@H]2CC[C@@H](NC(=O)[C@]3(F)CNC4(CCC4)C3)C2)c(-c2cccc(F)c2C2CCC2)c1 (single isomer, unassigned) [Example C15] | > 1000 | 1270 |  | 
2 | CCS(=O)(=O)NC(=O)Cc1ccc(O[C@@H]2CC[C@@H](NC(=O)[C@@]3(F)CNC4(CCC4)C3)C2)c(-c2cccc(F)c2C2CCC2)c1 (single isomer, unassigned) [Example C32] | 40.8 | 4.51 |  | 
3 | CC(C)S(=O)(=O)NC(=O)Cc1ccc(O[C@@H]2CC[C@@H](NC(=O)[C@]3(F)CNC4(CCC4)C3)C2)c(-c2cccc(F)c2C2CCC2)c1 (single isomer, unassigned) [Example C41] |  |  | 39.8 | 4.1
4 | CCc1c(F)cccc1-c1cc(C(C)(C)C(=O)NS(=O)(=O)C(C)C)ccc1O[C@@H]1CC[C@@H](NC(=O)[C@@]2(F)CNCC(C)(C)C2)C1 (single isomer, unassigned) [Example C44] |  | > 99.9 | > 1000 | 
5 | CCc1c(F)cccc1-c1cc(CC(=O)NS(=O)(=O)C2(C)CC2)ccc1O[C@@H]1CC[C@@H](NC(=O)[C@@]2(F)CNCC(C)(C)C2)C1 (single isomer, unassigned) [Example C56] |  | > 99.9 | > 1000 | 
6 | CCS(=O)(=O)NC(=O)Cc1ccc(O[C@@H]2CC[C@@H](NC(=O)[C@@]3(F)CNCC4(CCC4)C3)C2)c(-c2cccc(F)c2C2CCC2)c1 (single isomer, unassigned) [Example C59] |  | 12.1 | 440 | 
7 | CC1(S(=O)(=O)NC(=O)Cc2ccc(O[C@@H]3CC[C@@H](NC(=O)[C@@]4(F)CNC5(CCCC5)C4)C3)c(-c3cccc(F)c3C3CCC3)c2)CC1 (single isomer, unassigned) [Example C69] | 0.6 | 0.04 |  | 
8 | CCS(=O)(=O)NC(=O)Cc1ccc(O[C@@H]2CC[C@@H](NC(=O)[C@@]3(F)CNC4(CCCC4)C3)C2)c(-c2cccc(F)c2C2CCC2)c1 (single isomer, unassigned) [Example C70] |  | 0.04 | 73.5 | 
9 | CCS(=O)(=O)NC(=O)Cc1ccc(O[C@@H]2CC[C@@H](NC(=O)[C@@]3(F)CNC4(CCCC4)C3)C2)c(-c2cccc(F)c2C2CCC2)c1 (single isomer, unassigned) [Example C71] |  | 0.01 | 1 | 
10 | CCc1c(F)cccc1-c1cc(CC(=O)NS(=O)(=O)C(C)C)ccc1O[C@@H]1CC[C@@H](NC(=O)[C@@]2(F)CNC3(CCCC3)C2)C1 (single isomer, unassigned) [Example C72] |  | 45.4 | > 1000 | 
11 | CCc1c(F)cccc1-c1cc(CC(=O)NS(=O)(=O)C(C)C)ccc1O[C@@H]1CC[C@@H](NC(=O)[C@@]2(F)CNC3(CCCC3)C2)C1 (single isomer, unassigned) [Example C73] |  | 0.05 | 4.8 | 
12 | CC(C)c1ccccc1-c1cc(CC(=O)NS(=O)(=O)C(C)C)ccc1O[C@@H]1CC[C@@H](NC(=O)[C@@]2(F)CNCC(C)(C)C2)C1 (single isomer, unassigned) [Example C74] |  | > 99.9 | > 1000 | 
13 | CC(C)c1ccccc1-c1cc(CC(=O)NS(=O)(=O)C(C)C)ccc1O[C@@H]1CC[C@@H](NC(=O)[C@@]2(F)CNCC(C)(C)C2)C1 (single isomer, unassigned) [Example C75] |  | 0.17 | 4.5 | 
14 | CC(C)S(=O)(=O)NC(=O)Cc1ccc(O[C@@H]2CC[C@@H](NC(=O)[C@@]3(F)CNCC(C)(C)C3)C2)c(-c2cccc(F)c2C2CCC2)c1 (single isomer, unassigned) [Example C76] |  | 46 | 485 | 
15 | CC(C)S(=O)(=O)NC(=O)Cc1ccc(O[C@@H]2CC[C@@H](NC(=O)[C@@]3(F)CNCC(C)(C)C3)C2)c(-c2cccc(F)c2C2CCC2)c1 (single isomer, unassigned) [Example C77] |  | 0.05 | 6 | 
16 | CC1(C)CNC[C@](F)(C(=O)N[C@@H]2CC[C@@H](Oc3ccc(CC(=O)NS(=O)(=O)C4(C)CC4)cc3-c3cccc(F)c3C3CCC3)C2)C1 (single isomer, unassigned) [Example C78] |  | 0.08 | > 1000 | 
17 | CC1(C)CNC[C@](F)(C(=O)N[C@@H]2CC[C@@H](Oc3ccc(CC(=O)NS(=O)(=O)C4(C)CC4)cc3-c3cccc(F)c3C3CCC3)C2)C1 (single isomer, unassigned) [Example C79] |  | 0.06 | 3.6 | 
18 | CC(C)c1ccccc1-c1cc(CC(=O)NS(=O)(=O)C2(C)CC2)ccc1O[C@@H]1CC[C@@H](NC(=O)[C@@]2(F)CNCC(C)(C)C2)C1 (single isomer, unassigned) [Example C80] |  | 0.11 | 2.6 | 
19 | CC(C)c1ccccc1-c1cc(CC(=O)NS(=O)(=O)C2(C)CC2)ccc1O[C@@H]1CC[C@@H](NC(=O)[C@@]2(F)CNCC(C)(C)C2)C1 (single isomer, unassigned) [Example C81] |  | 31.1 | 135 | 
20 | CCc1c(F)cccc1-c1cc([C@@H](C)C(=O)NS(=O)(=O)C2(C)CC2)ccc1O[C@@H]1CC[C@@H](NC(=O)[C@@]2(F)CNC3(CCC3)C2)C1 (single isomer, unassigned) [Example C82] |  | 0.07 | 8.7 | 
21 | CCc1c(F)cccc1-c1cc([C@@H](C)C(=O)NS(=O)(=O)C2(C)CC2)ccc1O[C@@H]1CC[C@@H](NC(=O)[C@@]2(F)CNC3(CCC3)C2)C1 (single isomer, unassigned) [Example C83] |  | 0.08 | 2.4 | 
22 | CCc1c(F)cccc1-c1cc([C@@H](C)C(=O)NS(=O)(=O)C2(C)CC2)ccc1O[C@@H]1CC[C@@H](NC(=O)[C@@]2(F)CNC3(CCCC3)C2)C1 (single isomer, unassigned) [Example C85] |  | 0.17 | 6.1 | 
23 | CCc1c(F)cccc1-c1cc([C@@H](C)C(=O)NS(=O)(=O)C2(C)CC2)ccc1O[C@@H]1CC[C@@H](NC(=O)[C@@]2(F)CNC3(CCCC3)C2)C1 (single isomer, unassigned) [Example C87] |  | 0.07 | 1.5 | 
24 | CCS(=O)(=O)NC(=O)[C@H](C)c1ccc(O[C@@H]2CC[C@@H](NC(=O)[C@@]3(F)CNC4(CCC4)C3)C2)c(-c2ccccc2C(C)C)c1 (single isomer, unassigned) [Example C88] | 10.3 | 0.21 |  | 
25 | CCS(=O)(=O)NC(=O)C(C)c1ccc(O[C@@H]2CC[C@@H](NC(=O)[C@@]3(F)CNC4(CCC4)C3)C2)c(-c2ccccc2C(C)C)c1 (single isomer, unassigned) [Example C89] |  | 0.16 | 6.5 | 
26 | CCS(=O)(=O)NC(=O)C(C)c1ccc(O[C@@H]2CC[C@@H](NC(=O)[C@@]3(F)CNC4(CCC4)C3)C2)c(-c2cccc(F)c2C2CCC2)c1 (single isomer, unassigned) [Example C90] | 3.3 | 0.05 |  | 
27 | CCS(=O)(=O)NC(=O)[C@H](C)c1ccc(O[C@@H]2CC[C@@H](NC(=O)[C@@]3(F)CNC4(CCC4)C3)C2)c(-c2cccc(F)c2C2CCC2)c1 (single isomer, unassigned) [Example C91] |  | 0.06 | 5.4 | 
28 | CN1CC2(CCCC2)C[C@@H]1C(=O)N[C@@H]1CC[C@@H](Oc2ccc(C(=O)O)cc2-c2ccccc2C2CCC2)C1 (single isomer, unassigned) [Example D9] | 67.2 | 6.76 |  | 
29 | C[C@H](C(=O)NS(C)(=O)=O)c1ccc(OC[C@H]2C[C@H](NC(=O)[C@@H]3CC(C)(C)CN3C)C2)c(-c2cccc(F)c2C2CCC2)c1 (single isomer, unassigned) [Example G3] | 20.5 | 2.15 |  | 
30 | C[C@@H](C(=O)NS(C)(=O)=O)c1ccc(OC[C@H]2C[C@H](NC(=O)[C@@H]3CC(C)(C)CN3C)C2)c(-c2cccc(F)c2C2CCC2)c1 (single isomer, unassigned) [Example G4] | 30.4 | 1.3 |  | 
